Experimental data taken from US9102925B2, “Compositions and methods for treating or preventing conditions and diseases associated with Mannheimia haemolytica” (Washington State University, priority 2009, dated 2015).
Values joined by “and” are separate entries in the source; they are usually repeats but may differ in a detail not shown here. Equal values may be shown once. “Also recorded” adds a separate entry of the source. Peptide text beside a SMILES is read from it.

Tests used:
[1] = target: T1, M. haemolytica leukotoxin (Lkt) (Mannheimia haemolytica, UniProt P16535)
[2] = system: M. haemolytica serotype-1 strain SH789; test: Calf challenge model: endobronchial inoculation of M. haemolytica with or without peptide; format: in vivo, Mannheimia haemolytica; settings: for Gross pneumonic lesions as % of total lung volume, Lesion (%), individual calf: 2 mg peptide with 5×10^9 CFU M. haemolytica endobronchially, necropsy 90 hours post-inoculation; for Number of M. haemolytica isolated from the lungs at necropsy, individual calf / Number of M. haemolytica isolated from the lungs at necropsy, Mean / Gross pneumonic lesions as % of total lung volume, Mean (%): 2 mg peptide with 5×10^9 CFU endobronchially; for Duration of nasal discharge post-inoculation: study period 90 hours; for Number of M. haemolytica isolated from the lungs at necropsy, Mean: group mean; for Number of M. haemolytica isolated from the lungs at necropsy, Mean / Gross pneumonic lesions as % of total lung volume, Mean (%): 4 calves; for Gross pneumonic lesions as % of total lung volume, Mean (%): group mean±SEM, 90 hours
Method: M. Haemolytica serotype-1 strain SH789, isolated from the pneumonic lung of a calf, was streaked on blood agar plate and incubated overnight at 37° C. The following day few colonies were transferred to 3 ml of pre-warmed brain heart infusion (BHI) broth and incubated for 3 hours at 37° C. with constant shaking (200 cycles/minute). Two BHI agar plates were ‘lawned’ with this bacterial culture using sterile cotton swabs and incubated overnight at 37° C. The following day (day of inoculation) M. haemolytica was harvested from the BHI agar plates and transferred to 40 ml of pre-warmed BHI broth in a 250 ml flask, and incubated for 2.5 hours at 37° C. with constant shaking to obtain cultures in the logarithmic phase of growth. The culture was centrifuged at 6000×g at 20° C. for 30 minutes and the pellet was washed once with RPMI 1640 (without phenol red) medium. The bacterial pellet was re-suspended in 4 ml of RPMI 1640 (without phenol red), and 1 ml of this culture was added to 50 ml of pre-warmed RPMI 1640 (without phenol red) containing L-glutamine (1 ml L-glutamine/100 ml RPMI) in a 250 ml flask. Bacteria were incubated for 3 hours at 37° C. with constant shaking to obtain logarithmic phase culture and the optical density (OD) was measured. The culture was appropriately diluted to obtain a concentration of 1×10^9 CFU of M. haemolytica per ml. Five ml of this preparation per calf was used for endobronchial challenge. The bacterial concentration was confirmed the following day by culturing diluted aliquots of the inoculum on BHI agar and counting the resulting colonies.
The peptide (P17) containing amino acids 5-17 of bovine CD18 (NH2-RPQLLLLAGLLAL-OH) (SEQ ID NO.:71), and the peptide (PSC) containing the same amino acids as peptide P17 but in a randomly scrambled sequence (NH2-LRALLPLQLLAGL-OH) (SEQ ID NO.:72), were synthesized at Neopeptide (Cambridge, Mass.). Both peptides were re-suspended in dimethysulfoxide (ATCC) at a concentration of 20 mg/ml and stored at −20° C. until used. Based on the results of in vitro neutralization of Lkt by peptide P17, each calf was endobronchially inoculated with 2 mg of peptide in 5 ml of RPMI mixed with 5×10^9 CFU of M. haemolytica in 5 ml of RPMI.
All experimental protocols were approved by the Institutional Animal Care and Use Committee (IACUC) at Washington State University before the onset of the study. Twelve Holstein calves were randomly assigned to three experimental groups. Calves were matched for age when assigned into three groups. Prior to inoculation, serum samples and pharyngeal and nasal swabs were collected from all the calves. Group I calves received endobronchial injections of 5×10^9 CFU of M. haemolytica in 10 ml of RPMI. Group II calves received 5×10^9 CFU of M. haemolytica and 2 mg of peptide PSC in 10 ml of RPMI. Group III calves received 5×10^9 CFU of M. haemolytica and 2 mg of peptide P17 in 10 ml of RPMI. The inoculum was flushed down with an additional 10 ml of RPMI in all calves. Clinical disease in each calf was scored at different time points post-inoculation.
Physical examination of each calf was performed immediately prior to experimental infection and at 6, 18, 24, 42, 48, 66, 72, and 90 hours post-inoculation. Signs of clinical disease were allocated points according to the scoring system followed by Malazdrewich et al (2003; Table 3).
On necropsy lungs were removed and gross pneumonic lesion development in each lobe of lung was observed. The entire lung from each animal was sliced at 1 cm thickness and the total and pneumonic lesion areas were traced onto transparent acetate sheets. The traced portions were scanned into ImgaeJ, NIH Image (National Institute of Health; Nethesda, Md.), which was used to measure areas representing both the total serial section and the gross pneumonic lesions within it. […]

[3] = target: T1, M. haemolytica leukotoxin (Lkt); test: cell-based

| Molecule | Leukotoxic activity of supernatant fluids from M. haemolytica cultures incubated with peptide [1] | Gross pneumonic lesions as % of total lung volume, Lesion (%), individual calf ([2]; calves) | Number of M. haemolytica isolated from the lungs at necropsy, individual calf ([2]; calves, necropsy 90 hours) | Duration of nasal discharge post-inoculation ([2]; calves) | Number of M. haemolytica isolated from the lungs at necropsy, Mean ([2]; necropsy 90 hours) | Gross pneumonic lesions as % of total lung volume, Mean (%) [2] | IC50 [3] | Inhibition of Lkt-induced cytolysis of bovine PMNs [3] | Inhibition of Lkt-induced cytolysis of ruminant leukocytes [3] | M. haemolytica in lungs, fold less than in Group I (bacteria only) and Group II (PSC) ([2]; calves, necropsy 90 hours, P<0.001) | Gross pneumonic lesions (percent lung volume) compared between groups ([2]; calves, necropsy 90 hours, P=0.9) | Mean clinical score compared with other groups at 24 hours post-inoculation ([2]; calves, 24 hours post-inoculation, P<0.05) | Total clinical disease scores compared with Group I and II ([2]; calves, scored 6 to 90 hours post-inoculation) |
| --- | --- | --- | --- | --- | --- | --- | --- | --- | --- | --- | --- | --- | --- |
| NH2-LRALLPLQLLAGL-OH (H-LRALLPLQLLAGL-OH) [PSC, reference compound] | had significant leukotoxic activity | 4.07% and 10.70% and 9.01% and 24.57% | 1.89 × 10^7 CFU per gram of lung tissue and 6.73 × 10^5 CFU per gram of lung tissue and 6.50 × 10^7 CFU per gram of lung tissue and 1.87 × 10^7 CFU per gram of lung tissue | throughout the study period | 2.58 ± 1.374 × 10^7 CFU per gram of lung tissue | 12.09 ± 4.39% |  |  |  |  |  |  |  |
| CC(C)C[C@H](NC(=O)CNC(=O)[C@H](C)NC(=O)[C@H](CC(C)C)NC(=O)[C@H](CC(C)C)NC(=O)[C@H](CC(C)C)NC(=O)[C@H](CC(C)C)NC(=O)[C@H](CCC(N)=O)NC(=O)[C@@H]1CCCN1C(=O)[C@@H](N)CCCNC(=N)N)C(=O)N[C@@H](CC(C)C)C(=O)N[C@@H](C)C(=O)N[C@@H](CC(C)C)C(=O)N[C@@H](CCC(N)=O)C(=O)N[C@@H](CO)C(=O)N[C@H](C(=O)N[C@@H](CC(C)C)C(=O)N[C@@H](CO)C(=O)N[C@@H](CCC(N)=O)C(=O)N[C@@H](CCC(=O)O)C(=O)O)C(C)C [P5] (H-RPQLLLLAGLLALQSVLSQE-OH) |  |  |  |  |  |  | 5.55 µM |  |  |  |  |  |  |
| CSCC[C@H](N)C(=O)N[C@@H](CC(C)C)C(=O)N[C@@H](CCCNC(=N)N)C(=O)N[C@@H](CCC(N)=O)C(=O)N[C@@H](CCCNC(=N)N)C(=O)N1CCC[C@H]1C(=O)N[C@@H](CCC(N)=O)C(=O)N[C@@H](CC(C)C)C(=O)N[C@@H](CC(C)C)C(=O)N[C@@H](CC(C)C)C(=O)N[C@@H](CC(C)C)C(=O)N[C@@H](C)C(=O)NCC(=O)N[C@@H](CC(C)C)C(=O)N[C@@H](CC(C)C)C(=O)N[C@@H](C)C(=O)N[C@@H](CC(C)C)C(=O)N[C@@H](CCC(N)=O)C(=O)N[C@@H](CO)C(=O)N[C@H](C(=O)O)C(C)C [P1] (H-MLRQRPQLLLLAGLLALQSV-OH) |  |  |  |  |  |  | 11.6 µM |  |  |  |  |  |  |
| NH2-RPQLLLLAGLLAL-OH (H-RPQLLLLAGLLAL-OH; listed as Bos taurus) [P17] | did not exhibit significant leukotoxic activity | 15.67% and 2.7% and 13.22% and 8.51% | 5.29 × 10^3 CFU per gram of lung tissue and 4.92 × 10^2 CFU per gram of lung tissue and 5.70 × 10^4 CFU per gram of lung tissue and 8.00 × 10^2 CFU per gram of lung tissue | up to 24 hours | 1.589 ± 1.374 × 10^4 CFU per gram of lung tissue | 10.53 ± 3.02% |  | strongly inhibited | effectively inhibited | 100- to 1000 fold and 100 to 1000 fold | not statistically significant; also recorded: no less than those in calves inoculated with the control peptide PSC | statistically significantly lower | lower than those for group I and II at all time points except 48 hours |
